From US5527832A, “Antiinflammatory and analgesic transdermal gel” (priority 1994, dated 1996)

Assays:
[1] = Gastric ulcer formation (Experiment 4); assay type: in vivo, male Sprague-Dawley rats; settings: 10 mg/kg
Method: Male Sprague-Dawley rats weighing around 200 g were used as the test animals. […] As a reference, the rats of the control group were administrated ketoprofen orally as a suspension in physiological saline at the dose of 10 mg/kg. Six hours after the administration, the rats were sacrificed and ulcer formation in the stomach was scored as follows: 0; normal, 1; reddened mucosa, 2; one to four small ulcer (smaller than 2 mm in diameter). 3; more than four small ulcer or one large ulcer (larger than 2 mm in diameter), 4; more than one large ulcer. The score of two or higher was regarded as ulcer formation.

[2] = postdose, oral administration to rats; cited from earlier work

Compound	Average ulcer score ([1]; rat, in vivo, po)	No. of rat ulcer is produced ([1]; rat, in vivo, po)	Time of maximum concentration of ketoprofen [2] [h]	No. of rat ulcer is produced ([1]; oral, 6 h after administration)	Average ulcer score ([1]; oral, 6 h after administration, score 0-4)
CC(C(=O)O)c1ccc(-c2ccccc2)c(F)c1 (stereo not shown) [flurbiprofen]	2.46	5/6			
CC(C(=O)O)c1cccc(C(=O)c2ccccc2)c1 (stereo not shown) [ketoprofen]			0.25 to 0.5	6/6	2.91
CC(C)Cc1ccc(C(C)C(=O)O)cc1 (stereo not shown) [ibuprofen]	2.53	6/6			
